# Assay results reported in patent US9867879B2 (Vanderbilt University, priority 2015, dated 2018).
# Tests used:
# hemY/PPO [1] = target: hemY/PPO (Bacillus subtilis, UniProt P32397); assay: Activation of hemY/PPO, Bacillus subtilis; assay type: biochemical
# [2] = tested on: heme biosynthetic pathway; assay: Accumulation of heme precursor molecules; assay type: cell-based, S. aureus; details: data not shown
# Text: Because ALA is the first committed precursor molecule in the heme biosynthetic pathway, if ALA is contacted with bacteria, the bacteria will generated enhanced amounts of all of the heme precursor molecules downstream of ALA.
# S. aureus = assay: Phototherapy: compound plus light, CFU count; assay type: cell-based
# Experimental: Briefly, S. aureus was incubated with the 882 compound for 30 minutes at 37° C., treated with light for 45 minutes (500 W halogen), and then a colony-forming unit (CFU) count was conducted.
# mammalian PPO = target: T1, mammalian PPO (Homo sapiens, UniProt P50336); assay: Activation of mammalian PPO; assay type: biochemical
# T1 sequence (P50336 1-477): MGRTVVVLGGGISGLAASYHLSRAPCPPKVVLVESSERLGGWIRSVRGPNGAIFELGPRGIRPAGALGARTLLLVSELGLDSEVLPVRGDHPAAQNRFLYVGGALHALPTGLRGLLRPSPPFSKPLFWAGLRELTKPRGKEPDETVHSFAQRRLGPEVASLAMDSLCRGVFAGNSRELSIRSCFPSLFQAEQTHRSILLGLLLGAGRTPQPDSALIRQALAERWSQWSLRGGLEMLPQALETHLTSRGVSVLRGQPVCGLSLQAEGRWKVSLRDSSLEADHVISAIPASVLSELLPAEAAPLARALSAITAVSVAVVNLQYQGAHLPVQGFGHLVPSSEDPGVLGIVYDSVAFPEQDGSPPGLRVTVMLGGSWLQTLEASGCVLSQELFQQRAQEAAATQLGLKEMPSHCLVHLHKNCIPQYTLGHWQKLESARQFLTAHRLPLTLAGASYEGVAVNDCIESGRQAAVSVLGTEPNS
# hemY/PPO [3] = assay: Activation of hemY/PPO, Propionibacterium acnes; assay type: biochemical
# wild type S. aureus hemY = target: T2, wild type S. aureus hemY (Staphylococcus aureus, UniProt Q2FXA5); assay: Activation of hemY, wild type; assay type: biochemical
# T2 sequence (Q2FXA5 1-466): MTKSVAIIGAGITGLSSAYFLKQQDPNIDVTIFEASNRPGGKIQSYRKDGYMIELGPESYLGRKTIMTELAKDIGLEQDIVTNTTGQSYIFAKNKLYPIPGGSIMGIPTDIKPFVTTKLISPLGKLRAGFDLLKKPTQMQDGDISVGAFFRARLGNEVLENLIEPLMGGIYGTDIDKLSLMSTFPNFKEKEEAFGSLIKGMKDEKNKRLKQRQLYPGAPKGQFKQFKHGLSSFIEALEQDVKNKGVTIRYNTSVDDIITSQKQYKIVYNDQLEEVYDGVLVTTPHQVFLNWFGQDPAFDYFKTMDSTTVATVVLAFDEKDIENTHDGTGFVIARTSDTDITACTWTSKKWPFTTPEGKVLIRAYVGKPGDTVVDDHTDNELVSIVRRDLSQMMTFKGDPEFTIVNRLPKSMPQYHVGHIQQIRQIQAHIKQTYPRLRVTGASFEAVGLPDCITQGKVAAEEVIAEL
# [4] = target: T183K point mutant of hemY (Staphylococcus aureus, UniProt Q2FXA5, T183K); assay: Activation of hemY, T183K mutant; assay type: biochemical, S. aureus
# Sequence of hemY/PPO (Bacillus subtilis, UniProt P32397) (P32397 whole entry): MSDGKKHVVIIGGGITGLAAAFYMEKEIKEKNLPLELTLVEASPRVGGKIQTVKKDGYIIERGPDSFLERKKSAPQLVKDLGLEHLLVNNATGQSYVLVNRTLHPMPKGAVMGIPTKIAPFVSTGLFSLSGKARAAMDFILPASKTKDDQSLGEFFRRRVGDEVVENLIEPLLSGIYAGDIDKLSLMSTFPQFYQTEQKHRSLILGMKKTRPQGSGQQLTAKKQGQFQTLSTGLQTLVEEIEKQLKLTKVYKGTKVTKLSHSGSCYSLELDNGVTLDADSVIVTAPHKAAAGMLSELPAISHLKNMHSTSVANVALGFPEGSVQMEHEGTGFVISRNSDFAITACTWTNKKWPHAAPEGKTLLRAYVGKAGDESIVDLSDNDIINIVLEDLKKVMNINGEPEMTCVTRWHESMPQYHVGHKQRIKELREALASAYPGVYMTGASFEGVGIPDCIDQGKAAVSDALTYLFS
smiles,measurement,setting,value
Oc1c(-c2cc(-c3ccco3)[nH]n2)ccc2ccccc12 [882 compound],activation of hemY/PPO,hemY/PPO [1],activates hemY/PPO in Bacillus subtilis
same,PPIX accumulation,[2],does increase PPIX accumulation
same,accumulation of PBG,[2],does not
same,toxicity with light compared to ALA and light,S. aureus; 882 50 μM and light vs ALA 10 mg/mL and light,more toxic to the bacteria than ALA
same,photosensitization,"S. aureus; 30 min at 37° C., light 45 min (500 W halogen), CFU count",leads to staphylococcal photosensitization
same,activation of PPO,mammalian PPO,activates
same,activation of hemY/PPO,hemY/PPO [3],activates
same,activation of hemY,wild type S. aureus hemY,activates wild type S. aureus hemY
same,activation of hemY,[4],not the T183K point mutant of hemY
